Results reported in patent US20180318197A1, “SOYASAPONIN-CONTAINING COMPOSITION FOR SKIN WHITENING” (AMOREPACIFIC CORPORATION, priority 2015, published 2018).

Experiments:
[1] = tested on: Murine melanoma (B16) cells; assay: Evaluation of the degree of melanin production inhibition in α-MSH-stimulated B16 cells; type: cell-based; conditions: B16 cells with α-MSH; 12.5, 25, 50 or 100 μM soyasaponin Aa; 3 days; absorbance at 490 nm
Description: Murine melanoma (B16) cells purchased from the Korean Cell Line Bank were seeded into each well of a 12-well plate (5×10^4 cells/well) in DMEM (Dulbecco's modified eagle's medium) containing FBS (fetal calf serum) or a medium having growth rates equivalent to or higher than those in the DMEM. The cells were cultured at 37° C. with 5% CO2 until they reached about 80% confluency. After cultivation, the medium was removed and samples were replaced in medium diluted with 12.5, 25, 50 or 100 μM of soyasaponin Aa, or 100 ppm (corresponding to 700 μM) of kojic acid, and then cultured at 37° C. with 5% CO2 for 3 days. At this time, α-MSH (melanin stimulation hormone), which is a substance that allows B16 cells to better form melanin during cultivation, was included together in the medium of the other treatment groups except for the untreated control group. […] The concentration range of the samples was determined through toxicity tests. […] The obtained solution was measured for the absorbance at 490 nm using an ELISA reader (Synergy 2, BioTek. USA), and the amount of protein was determined by the Bradford assay, and then the amount of melanin per constant number of cells or the amount of melanin per constant amount of protein was estimated. […]

[2] = target: T1, melanocyte-derived tyrosinase (melan-a cell extract) (Mus musculus, UniProt P11344); assay: Cell extract tyrosinase inhibitory activity (DOPA to dopachrome colorimetric reaction); type: biochemical; conditions: pH 6.8, substrate DOPA, absorbance at 475 nm
T1 construct: melan-a cell extract mixture; endogenous in cells; host or cells: melan-a cells (cell extract)
T1 sequence (P11344 19-533): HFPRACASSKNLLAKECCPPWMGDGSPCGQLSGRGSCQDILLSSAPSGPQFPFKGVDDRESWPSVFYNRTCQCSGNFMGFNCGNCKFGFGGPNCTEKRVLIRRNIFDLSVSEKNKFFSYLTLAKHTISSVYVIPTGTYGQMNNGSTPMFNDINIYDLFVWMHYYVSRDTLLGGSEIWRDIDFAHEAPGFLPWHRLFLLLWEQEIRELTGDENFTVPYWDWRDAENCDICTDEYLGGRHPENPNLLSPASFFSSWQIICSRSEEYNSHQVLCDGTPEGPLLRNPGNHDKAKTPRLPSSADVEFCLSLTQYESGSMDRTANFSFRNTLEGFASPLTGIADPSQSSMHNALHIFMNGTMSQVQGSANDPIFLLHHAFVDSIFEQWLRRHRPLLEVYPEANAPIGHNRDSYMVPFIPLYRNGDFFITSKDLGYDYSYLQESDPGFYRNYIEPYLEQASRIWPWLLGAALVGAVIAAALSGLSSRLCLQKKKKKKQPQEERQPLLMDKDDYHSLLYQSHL
Description: Tyrosinase is an important enzyme that regulates the first step that is performed to produce melanin in the process of pigmentation, and tyrosinase inhibitory activity is known to be an important efficacy mechanism for whitening. Therefore, in this test example, the ability of soyasaponin to inhibit the activity of tyrosinase was evaluated using a method for inhibiting the activity of cell extract tyrosinase. The method for evaluating the cell extract tyrosinase inhibitory activity is based on a phenomenon that melanocyte-derived tyrosinase causes a colorimeteric reaction by allowing substrate DOPA (3,4-dihydroxyphenylalanine; colorless) to form dopacrome (reddish brown).
Specific experimental methods are as follows. Kojic acid as a positive control and soyasaponin Aa as an evaluation material were prepared by concentrating four times the concentration to be evaluated. Then, the reaction mixture (pH 6.8, 0.1M potassium phosphate buffer, melan-a cell extract mixture) was prepared in a 96 well plate. Since there may be colors depending on the evaluation material, a reaction mixture containing no cell extract liquid was made into a vehicle for background removal. […] Absorbance was measured at 475 nm using an ELISA reader (Synergy2, BioTek, USA) at intervals of 10 minutes until sufficient colorimeteric reaction had occurred.

## CC(=O)O[C@@H]1[C@@H](OC(C)=O)[C@H](O[C@@H]2[C@@H](O)[C@H](O[C@@H]3[C@H](O)C(C)(C)C[C@H]4C5=CC[C@@H]6[C@@]7(C)CC[C@H](O[C@@H]8O[C@H](C(=O)O)[C@@H](O)[C@H](O)[C@H]8O[C@@H]8O[C@H](CO)[C@H](O)[C@H](O)[C@H]8O[C@@H]8O[C@H](CO)[C@@H](O)[C@H](O)[C@H]8O)[C@](C)(CO)[C@@H]7CC[C@@]6(C)[C@]5(C)CC[C@@]34C)OC[C@@H]2O)OC[C@H]1OC(C)=O [soyasaponin Aa]
[1]
  synthesis of melanin (intracellular FIG. 3 and extracellular FIG. 4): effectively inhibited
[2]
  activity of tyrosinase (FIG. 5): effectively inhibited
